Source: ChEMBL document CHEMBL4270572, “Synthesis and biological evaluation of novel larotaxel analogues” (Eur J Med Chem, 2018)

Assays:
in vivo [1] = details: beagle, dog, iv, 0.6 mg/kg
in vivo [2] = details: beagle, dog, iv, 2.4 mg/kg
in vivo [3] = details: beagle, dog, iv, 1.2 mg/kg
in vivo [4] = details: beagle, dog, iv, 0.6 mg/kg; remark: listed apart in the source
in vivo [5] = details: beagle, dog, iv, 0.6 mg/kg; remark: listed apart in the source
in vivo [6] = details: beagle, dog, iv, 1.2 mg/kg; remark: listed apart in the source
in vivo [7] = details: beagle, dog, iv, 0.6 mg/kg; remark: listed apart in the source
in vivo [8] = details: beagle, dog, iv, 2.4 mg/kg; remark: listed apart in the source
in vivo [9] = details: beagle, dog, iv, 2.4 mg/kg; remark: listed apart in the source
in vivo [10] = details: beagle, dog, iv, 1.2 mg/kg; remark: listed apart in the source
in vivo [11] = details: beagle, dog, iv, 2.4 mg/kg; remark: listed apart in the source
in vivo [12] = details: beagle, dog, iv, 1.2 mg/kg; remark: listed apart in the source

Compound `CC(=O)O[C@H]1C(=O)[C@]23C[C@H]2C[C@H]2OC[C@@]2(OC(C)=O)[C@H]3[C@H](OC(=O)c2ccccc2)[C@]2(O)C[C@H](OC(=O)[C@H](O)[C@H](CC(C)C)NC(=O)OC(C)(C)C)C(C)=C1C2(C)C` has a half-life (in vivo [1]) of 6.06 h, a Cmax (in vivo [2]) of 974 ng/mL and a half-life (in vivo [3]) of 11.2 h. It also gave a Cmax (in vivo [4]) of 67.1 ng/mL, a Tmax (in vivo [5]) of 0.89 h and a Vd (in vivo [6]) of 34.8 L/kg. The Vd (in vivo [7]) was 45.6 L/kg, the Vd (in vivo [8]) was 30.8 L/kg and the Tmax (in vivo [9]) was 0.97 h. It also gave a Tmax (in vivo [10]) of 0.81 h, a half-life (in vivo [11]) of 8.35 h and a Cmax (in vivo [12]) of 388 ng/mL.
